Data set [1] deals with MDA-MB-468. As to the kind of experiment: Antimigratory activity in human MDA-MB-468 cells assessed as downregulation of Vimentin protein expression incubated for 48 hrs by Western blotting analysis. It counts as functional, cell-based.
The test system of data set [2] is MDA-MB-468. In words: Induction of apoptosis in human MDA-MB-468 cells at 0.2 uM incubated for 48 hrs by annexin-V-APC/PI staining based flow cytometric analysis (reference value: 5.38 +/- 1.63 %). In kind it is functional. A general note: A flow cytometer gives signals particle by particle.
Data set [3] has as its system MDA-MB-468. As to the kind of experiment: Induction of apoptosis in human MDA-MB-468 cells at 0.5 uM incubated for 48 hrs by annexin-V-APC/PI staining based flow cytometric analysis (reference value: 5.38 +/- 1.63 %). It counts as functional.
The test system of data set [4] is MDA-MB-468. In words: Induction of apoptosis in human MDA-MB-468 cells at 2 uM incubated for 48 hrs by annexin-V-APC/PI staining based flow cytometric analysis (reference value: 5.38 +/- 1.63 %). In kind it is functional.
For data set [5], the system named is MDA-MB-231. As to the kind of experiment: Induction of apoptosis in human MDA-MB-231 cells at 0.2 uM incubated for 48 hrs by annexin-V-APC/PI staining based flow cytometric analysis (reference value: 1.81 +/- 0.47 %). In kind it is functional.
For data set [6], the system named is MDA-MB-231. In words: Induction of apoptosis in human MDA-MB-231 cells at 5 uM incubated for 48 hrs by annexin-V-APC/PI staining based flow cytometric analysis (reference value: 1.81 +/- 0.47 %). It counts as functional.
Data set [7] has as its system MDA-MB-468. As to the kind of experiment: Induction of cell cycle arrest in human MDA-MB-468 cells assessed as increase in accumulation of cells at S phase at 0.2 to 2 uM incubated for 48 hrs by RNase/PI staining based flow cytometric analysis. In kind it is functional. The following applies: dose 0.2-2 µM.
Data set [8] concerns MDA-MB-231. In words: Induction of cell cycle arrest in human MDA-MB-231 cells assessed as decrease in accumulation of cells at G1 phase at 0.2 to 2 uM incubated for 48 hrs by RNase/PI staining based flow cytometric analysis. It counts as functional. The following applies: dose 0.2-2 µM.
For data set [9], the system named is MDA-MB-468. In words: Induction of cell cycle arrest in human MDA-MB-468 cells assessed as downregulation of Cyclin E1 protein expression incubated for 48 hrs by Western blotting analysis. It counts as functional, cell-based. A general note: In western blotting, separated proteins are transferred to a membrane and probed.
Data set [10] relates to MDA-MB-231. In words: Induction of cell cycle arrest in human MDA-MB-231 cells assessed as downregulation of Cyclin B1 protein expression incubated for 48 hrs by Western blotting analysis. In kind it is functional, cell-based.
In data set [11] the test system is MDA-MB-231. As to the kind of experiment: Inhibition of NF-kappaB signalling pathway in human MDA-MB-231 cells assessed as effect on total p65 protein level at 0.2 to 2 uM incubated for 48 hrs by Western blotting analysis. Particulars: dose 0.2-2 µM. It counts as cell-based.
In data set [12] the test system is MDA-MB-231. As to the kind of experiment: Inhibition of NF-kappaB signalling pathway in human MDA-MB-231 cells assessed as downregulation of nuclear p65 expression at 0.2 to 2 uM incubated for 48 hrs by Western blotting analysis. It counts as cell-based. Particulars: dose 0.2-2 µM.
For data set [13], the system named is 4T1. In words: Antitumor activity against mouse 4T1 cells implanted in Balb/c mouse assessed as inhibition of tumor volume at 10 mg/kg,ip administrated every two days for 20 days. In kind it is functional, organism-based. Particulars: time 20.0 day.
Data set [14] deals with 4T1. As to the kind of experiment: Antitumor activity against mouse 4T1 cells implanted in Balb/c mouse assessed as inhibition of tumor weight at 10 mg/kg,ip administrated every two days for 20 days. It counts as functional, organism-based. The following applies: time 20.0 day.
Data set [15] is described as follows: Toxicity in Balb/c mouse implanted with mouse 4T1 cells assessed as decrease in body weight at 10 mg/kg,ip administrated every two days for 20 days. In kind it is organism-based. Particulars: in vivo, 480 h, time 20 day.

Activity calls are given as the source filed them. The rule behind the calls is not given here.

For the compound `C=C1C(=O)O[C@H]2[C@H]1CC/C(COc1ccc(-c3cc(=S)ss3)cc1)=C\CC[C@@]1(C)O[C@@H]21`, the Activity entry in [1] was “Dose-Dependent Effect”; in data set [2] it was 4.32%; in data set [3], 5.77%; in [4] it was 8.64%; in [5] it was 2.01%; in [6], 71.28%. Besides, the Activity entry in data set [9] was “Dose-Dependent Effect”; in data set [10] it was “Dose-Dependent Effect”; in [15], “Toxic”. Moreover, the outcome in data set [7], in data set [8], in [13] and in data set [14] was Active. Moreover, the inhibition result in [11] is “inactive”. The inhibition entry in data set [12] is “Active”.

The record behind these values is ChEMBL document CHEMBL5537150, “Synthesis of melampomagnolide B derivatives as potential anti-Triple Negative Breast Cancer agents” (Eur J Med Chem, 2024).
